molecular target: T1, human PTH1 receptor (Homo sapiens, UniProt Q03431); test: In vitro cAMP signal activity in HKRK-B7 cells (LLC-PK1 cells overexpressing the human PTH1 receptor); assay type: cell-based; conditions: 0.1 µM
T1 sequence (Q03431 27-593): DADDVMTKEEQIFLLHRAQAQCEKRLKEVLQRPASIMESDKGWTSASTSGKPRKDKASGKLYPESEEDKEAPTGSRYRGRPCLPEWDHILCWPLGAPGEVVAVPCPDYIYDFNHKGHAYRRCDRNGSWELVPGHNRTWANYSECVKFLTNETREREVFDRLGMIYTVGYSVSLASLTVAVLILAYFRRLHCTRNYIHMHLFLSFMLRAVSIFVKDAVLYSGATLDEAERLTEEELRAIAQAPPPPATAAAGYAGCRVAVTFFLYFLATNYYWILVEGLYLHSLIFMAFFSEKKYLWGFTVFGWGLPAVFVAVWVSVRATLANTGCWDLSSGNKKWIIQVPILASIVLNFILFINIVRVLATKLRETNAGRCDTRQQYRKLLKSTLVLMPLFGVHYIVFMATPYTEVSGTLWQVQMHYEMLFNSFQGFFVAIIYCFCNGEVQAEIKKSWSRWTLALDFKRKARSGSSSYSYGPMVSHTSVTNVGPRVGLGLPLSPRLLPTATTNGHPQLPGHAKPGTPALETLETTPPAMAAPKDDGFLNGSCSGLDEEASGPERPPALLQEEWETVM

Row | SMILES | cAMP production activity (%)
1 | Cc1cc(N(C)C(N)=O)cc(C)c1CCS(=O)(=O)N1CCC2(CC1)N=C(C1CCC([Si](C)(C)C)CC1)NC2=O (stereo not shown) [Compound 1137, 1-(3,5-Dimethyl-4-{2-[4-oxo-2-(4-trimethylsilanyl-cyclohexyl)-1,3,8-triaza-spiro[4.5]dec-1-ene-8-sulfonyl]-ethyl}-phenyl)-1-methyl-urea] | 82

same assay, conditions: HKRK-B7 cells; compound at 1×10^−3 M; cAMP produced as percentage of that produced by hPTH(1-34) at 100 nM

Row | cAMP production activity (%) | SMILES
2 | 100 | Cc1cc(N2C(=O)NC(C)(C)C2=O)ccc1CCS(=O)(=O)N1CCC2(CC1)N=C(C1CCC(CCC(F)(F)F)CC1)NC2=O (stereo not shown) [Compound 864, 5,5-dimethyl-3-[3-methyl-4-(2-{4-oxo-2-[4-(3,3,3-trifluoro-propyl)-cyclohexyl]-1,3,8-triaza-spiro[4.5]dec-1-ene-8-sulfonyl}-ethyl)-phenyl]-imidazolidine-2,4-dione]
3 | 92 | Cc1cc(NCC2CNC(=O)O2)ccc1CCS(=O)(=O)N1CCC2(CC1)N=C(C1CCCCC1)NC2=O (stereo not shown) [Compound 281, 2-cyclohexyl-8-(2-{2-methyl-4-[(2-oxo-oxazolidin-5-ylmethyl)-amino]-phenyl}-ethanesulfonyl)-1,3,8-triaza-spiro[4.5]dec-1-en-4-one]
4 | 74 | Cc1cc(C(=O)N2CCC(O)(CF)CC2)cc(C)c1/C=C/S(=O)(=O)N1CCC2(CC1)N=C(c1ccc3c(c1)OC(F)(F)O3)NC2=O [Compound 1280, 2-(2,2-difluoro-benzo[1,3]dioxol-5-yl)-8-{(E)-2-[4-(4-fluoromethyl-4-hydroxy-piperidine-1-carbonyl)-2,6-dimethyl-phenyl]-ethenesulfonyl}-1,3,8-triaza-spiro[4.5]dec-1-en-4-one]
5 | 64 | Cc1cc(C(=O)N2CCC(OC[C@H](O)CO)CC2)cc(C)c1/C=C/S(=O)(=O)N1CCC2(CC1)N=C(C1CCC(CCC(F)(F)F)CC1)NC2=O (stereo partly drawn) [Compound 993, 8-((E)-2-{4-[4-((R)-2,3-dihydroxy-propoxy)-piperidine-1-carbonyl]-2,6-dimethyl-phenyl}-ethenesulfonyl)-2-[4-(3,3,3-trifluoro-propyl)-cyclohexyl]-1,3,8-triaza-spiro[4.5]dec-1-en-4-one]
6 | 68 | Nc1ccc(CCS(=O)(=O)N2CCC3(CC2)N=C(C2CCCCC2)NC3=O)c(C(F)(F)F)c1 [Compound 314, 8-[2-(4-amino-2-trifluoromethyl-phenyl)-ethanesulfonyl]-2-cyclohexyl-1,3,8-triaza-spiro[4.5]dec-1-en-4-one]
7 | 92 | Cc1cc(C(=O)N(C)C)cc(C)c1/C=C/S(=O)(=O)N1CCC2(CC1)N=C(c1cccc(OC(F)(F)F)c1)NC2=O [Compound 961, 3,5,N,N-tetramethyl-4-{(E)-2-[4-oxo-2-(3-trifluoromethoxy-phenyl)-1,3,8-triaza-spiro[4.5]dec-1-ene-8-sulfonyl]-vinyl}-benzamide]
8 | 7.7 | CN1CCN(C(=O)Nc2ccc(/C=C/S(=O)(=O)N3CCC4(CC3)N=C(C3CCCCC3)NC4=O)c(C(F)(F)F)c2)CC1 [Compound 485, 4-methyl-piperazine-1-carboxylic acid {4-[(E)-2-(2-cyclohexyl-4-oxo-1,3,8-triaza-spiro[4.5]dec-1-ene-8-sulfonyl)-vinyl]-3-trifluoromethyl-phenyl}-amide]
9 | 66 | Cc1cc(C(=O)N(C)C)ccc1CCS(=O)(=O)N1CCC2(CC1)N=C(c1ccc(Cl)cc1Cl)NC2=O [Compound 73, 4-{2-[2-(2,4-Dichloro-phenyl)-4-oxo-1,3,8-triaza-spiro[4.5]dec-1-ene-8-sulfonyl]-ethyl}-3,N,N-trimethyl-benzamide]
10 | 58 | Nc1cc(C(F)(F)F)c(/C=C/S(=O)(=O)N2CCC3(CC2)N=C(C2CCCCC2)NC3=O)c(C(F)(F)F)c1 [Compound 491, 8-[(E)-2-(4-amino-2,6-bis-trifluoromethyl-phenyl)-ethenesulfonyl]-2-cyclohexyl-1,3,8-triaza-spiro[4.5]dec-1-en-4-one]
11 | 106 | Cc1cc(C(=O)N2CCC(O)(CF)CC2)cc(C)c1/C=C/S(=O)(=O)N1CCC2(CC1)N=C(c1ccc(F)c(Cl)c1)NC2=O [Compound 1242, 2-(3-chloro-4-fluoro-phenyl)-8-{(E)-2-[4-(4-fluoromethyl-4-hydroxy-piperidine-1-carbonyl)-2,6-dimethyl-phenyl]-ethenesulfonyl}-1,3,8-triaza-spiro[4.5]dec-1-en-4-one]
12 | 66 | CCCCC1CCN(C2=NC3(CCN(S(=O)(=O)CCc4ccc(C(=O)N(C)C)cc4C)CC3)C(=O)N2)CC1 [Compound 1403, 4-{2-[2-(4-Butyl-piperidin-1-yl)-4-oxo-1,3,8-triaza-spiro[4.5]dec-1-ene-8-sulfonyl]-ethyl}-3,N,N-trimethyl-benzamide]
13 | 61 | Cc1cc(C2=NC3(CCN(S(=O)(=O)CCc4ccc(C(=O)N(C)C)cc4C)CC3)C(=O)N2)ccc1F [Compound 117, 4-{2-[2-(4-fluoro-3-methyl-phenyl)-4-oxo-1,3,8-triaza-spiro[4.5]dec-1-ene-8-sulfonyl]-ethyl}-3,N,N-trimethyl-benzamide]
14 | 95 | Cc1cc(C(=O)N2CCC(O)(CF)CC2)cc(C)c1CCS(=O)(=O)N1CCC2(CC1)N=C(c1ccc(C(F)(F)F)c(Cl)c1)NC2=O [Compound 1278, 2-(3-chloro-4-trifluoromethyl-phenyl)-8-{2-[4-(4-fluoromethyl-4-hydroxy-piperidine-1-carbonyl)-2,6-dimethyl-phenyl]-ethanesulfonyl}-1,3,8-triaza-spiro[4.5]dec-1-en-4-one]
15 | 94 | CC(=O)N(c1cc(C)c(/C=C/S(=O)(=O)N2CCC3(CC2)N=C(c2cccc(OC(F)(F)F)c2)NC3=O)c(C)c1)C1CCOCC1 [Compound 616, N-(3,5-dimethyl-4-{(E)-2-[4-oxo-2-(3-trifluoromethoxy-phenyl)-1,3,8-triaza-spiro[4.5]dec-1-ene-8-sulfonyl]-vinyl}-phenyl)-N-(tetrahydro-pyran-4-yl)-acetamide]
16 | 114 | CCCCCCCCCC1=NC2(CCN(S(=O)(=O)CCc3ccc(N(CCOCCO)C(C)=O)cc3C)CC2)C(=O)N1 [Compound 825, N-[2-(2-hydroxy-ethoxy)-ethyl]-N-{3-methyl-4-[2-(2-nonyl-4-oxo-1,3,8-triaza-spiro[4.5]dec-1-ene-8-sulfonyl)-ethyl]-phenyl}-acetamide]
17 | 56 | COC(=O)c1sccc1S(=O)(=O)N1CCC2(CC1)N=C(C1CCCCC1)NC2=O [Compound 62, 3-(2-cyclohexyl-4-oxo-1,3,8-triaza-spiro[4.5]dec-1-ene-8-sulfonyl)-thiophene-2-carboxylic acid methyl ester]
18 | 22 | CCCCCC#CCCC1=NC2(CCN([S@TB17](=O)(=O)CCc3c(C)cc(N(C)C(N)=O)cc3C)CC2)C(=O)N1 [Compound 1082, 1-{3,5-dimethyl-4-[2-(2-non-3-ynyl-4-oxo-1,3,8-triaza-spiro[4.5]dec-1-ene-8-sulfonyl)-ethyl]-phenyl}-1-methyl-urea]
19 | 15 | Cc1cc2ccc1CCS(=O)(=O)N1CCC3(CC1)N=C(NC3=O)c1ccc(C(F)(F)F)c(c1)OCCCC=COCCN(C)C2=O [Compound 1431]
20 | 6.7 | Cc1cc(C(=O)N(C)C)ccc1CCS(=O)(=O)N1CCC2(CC1)N=C(c1ccc(Cl)cc1)NC2=O [Compound 87, 4-{2-[2-(4-chloro-phenyl)-4-oxo-1,3,8-triaza-spiro[4.5]dec-1-ene-8-sulfonyl]-ethyl}-3,N,N-trimethyl-benzamide]
21 | 104 | CN(C)C(=O)n1ccc2cccc(CCS(=O)(=O)N3CCC4(CC3)N=C(C3CCCCC3)NC4=O)c21 [Compound 647, 7-[2-(2-cyclohexyl-4-oxo-1,3,8-triaza-spiro[4.5]dec-1-ene-8-sulfonyl)-ethyl]-indole-1-carboxylic acid dimethylamide]
22 | 102 | Cc1cc(C(=O)N2CCC(O)(CF)CC2)cc(C)c1CCS(=O)(=O)N1CCC2(CC1)N=C(C1CCC(CCC(F)(F)F)CC1)NC2=O (stereo not shown) [Compound 1381, 8-{2-[4-(4-fluoromethyl-4-hydroxy-piperidine-1-carbonyl)-2,6-dimethyl-phenyl]-ethanesulfonyl}-2-[4-(3,3,3-trifluoro-propyl)-cyclohexyl]-1,3,8-triaza-spiro[4.5]dec-1-en-4-one]
23 | 82 | Cc1cc(C(=O)N2CCN(c3ccccn3)CC2)ccc1CCS(=O)(=O)N1CCC2(CC1)N=C(c1cccc(C(F)(F)F)c1)NC2=O [Compound 361, 8-{2-[2-methyl-4-(4-pyridin-2-yl-piperazine-1-carbonyl)-phenyl]-ethanesulfonyl}-2-(3-trifluoromethyl-phenyl)-1,3,8-triaza-spiro[4.5]dec-1-en-4-one]
24 | 28 | Cc1cc(S(C)(=O)=O)ccc1/C=C/S(=O)(=O)N1CCC2(CC1)N=C(c1cccc(C(F)(F)F)c1)NC2=O [Compound 593, 8-[(E)-2-(4-methanesulfonyl-2-methyl-phenyl)-ethenesulfonyl]-2-(3-trifluoromethyl-phenyl)-1,3,8-triaza-spiro[4.5]dec-1-en-4-one]

Row | SMILES | cAMP production activity (%)
25 | Cc1cc(CCS(=O)(=O)N2CCC3(CC2)N=C(c2cccc(OC(F)(F)F)c2)NC3=O)cc(C)c1OCCC(O)CO (stereo not shown) [Compound 855, 8-{2-[4-(3,4-dihydroxy-butoxy)-3,5-dimethyl-phenyl]-ethanesulfonyl}-2-(3-trifluoromethoxy-phenyl)-1,3,8-triaza-spiro[4.5]dec-1-en-4-one] | 82

Reference: patent US9169254B2, “Spiroimidazolone derivative” (Chugai Seiyaku Kabushiki Kaisha, priority 2009, dated 2015)
